According to patent publication US10398689B2, “Benzopiperidine derivative, preparation method thereof and medical use thereof” (Jiangsu Hengrui Medicine Co., Ltd., priority 2015, dated 2019):

Experiments:
MCF7 cells = experiment: Inhibition of the proliferation of MCF7 cells (Cell Titer-Glo); type: cell-based; conditions: Homo sapiens, MCF-7 cells, 72 hours, read-out: IC50 value of inhibition effect on the proliferation of MCF7 cells
Outline: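 MCF-7 cells seeded 24 h, then treated with compound (0.5% DMSO final) in 2% FBS medium for 72 h at 37 °C; viability read by CellTiter-Glo luminescence. IC50 from luminescence vs log concentration; maximum inhibition scaled to AZD9496 at 100 nM set as 100%.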

ERα = target: T1, ERα (Homo sapiens, UniProt P03372); experiment: Degradation effect on ERα in MCF-7 cells (ERα Duoset ELISA); type: cell-based; conditions: MCF7; compound at 3 μM, relative to positive control AZD-9496 at 3 μM set to 100%
T1 construct: host or cells: MCF-7
T1 sequence (P03372 1-595): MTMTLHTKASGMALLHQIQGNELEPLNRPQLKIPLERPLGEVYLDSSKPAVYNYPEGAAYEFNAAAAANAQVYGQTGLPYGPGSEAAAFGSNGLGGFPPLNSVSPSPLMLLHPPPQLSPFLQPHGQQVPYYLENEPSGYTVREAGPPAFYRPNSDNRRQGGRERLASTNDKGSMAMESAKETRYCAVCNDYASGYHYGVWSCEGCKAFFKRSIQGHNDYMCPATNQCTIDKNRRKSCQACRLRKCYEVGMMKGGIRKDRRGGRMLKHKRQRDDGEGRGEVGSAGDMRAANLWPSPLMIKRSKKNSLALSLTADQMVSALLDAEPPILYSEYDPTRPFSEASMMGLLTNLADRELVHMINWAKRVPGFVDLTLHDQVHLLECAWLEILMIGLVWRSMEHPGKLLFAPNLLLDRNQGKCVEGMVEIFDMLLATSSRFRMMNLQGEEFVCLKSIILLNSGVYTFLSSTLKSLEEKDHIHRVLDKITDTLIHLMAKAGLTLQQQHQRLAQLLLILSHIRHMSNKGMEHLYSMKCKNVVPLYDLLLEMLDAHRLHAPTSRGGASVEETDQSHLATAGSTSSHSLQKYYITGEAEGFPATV
Method: In order to determine the degradation effect on ER induced by the compound of present invention, the following method was used to determine the degradation effect of the compounds of the present invention on ER.
MCF-7 cell line (TChu 74, Cell Bank of Chinese Academy of Sciences typical culture preservation Committee)
ERα Duoset Kit (#DYC5715E, R&D System)
MCF-7 cells well incubated in DMEM/F-12 medium containing 10% FBS.
On the first day of the experiment, MCF-7 cells were resuspended in DMEM/F-12 medium containing 10% FBS treated by activated carbon, then inoculated into a 48-well plate with a density of 50,000 cells/well and incubated for 22-24 hours.
On the second day of the experiment, the test compound was diluted with medium and added to a 48-well plate. The ERα-capture antibody was diluted to 1 μg/ml with PBS, and added with 100 μl/well to a 96-well plate at 100 μl/well. The plate was sealed and coated overnight at room temperature.
On the third day of the experiment, the coated 96-well plate was washed twice with PBS, added with a sealing solution (1% BSA in PBS) at 110 μl/well and sealed for 1 hour at room temperature. The 48-well plate was washed once and the residual liquid was removed. Then, 60 μl of lysis buffer (6 M urea, 1 mM EDTA, 0.5% Triton X-100, 1 mM PMSF, Protease Inhibitor cocktail) was added to each well. After lysis on ice for 15 minutes, the diluent (1 mM EDTA, 0.5% TritonX-100 dissolved in PBS) was added. The cell-diluted lysate was transferred to a 96-well plate at 100 μl/well, then the plate was incubated at room temperature for 2 hours. The diluted primary antibody was added after the plate was washed 4 times with a washing liquid (PBST). After incubation for 1 hour, the 96-well plate was washed 4 times, and the second antibody was added, then the plate was incubated for 30 minutes. After the plate was washed with a washing liquid, TMB chromogenic solution was added and incubated for 15 minutes. The reaction was stopped by the addition of 1 M H2SO4, then the light absorption at a wavelength of 450 nm was read. The degradation effect of the compound AZD9496 at 3 μM was set to 100%, the Emax of other compounds=(ODnegative control−ODcompound 3 μM)/(ODnegative control−ODAZD9496 3 μM)×100%, and the negative control was a well with DMSO.

SMILES: CCc1ccc(N2C(C)Cc3cc(-c4cnn(C)c4)ccc3C2c2ccc(/C=C/C(=O)O)cc2)cc1 [Example 1, (E)-3-(4-((1R,3R/1S,3S)-2-(4-Ethylphenyl)-3-methyl-6-(1-methyl-1H-pyrazol-4-yl)-1,2,3,4-tetrahydroisoquinolin-1-yl)phenyl)acrylic acid]
- IC50 (MCF7 cells): 0.37 nM
- Emax at 3 µM (ERα): 115%

SMILES: CCn1cc(-c2ccc3c(c2)CC(C)N(c2ccc(C(C)C)cc2)C3c2ccc(/C=C/C(=O)O)cc2)cn1 [Example 7, (E)-3-(4-((1R,3R/1S,3S)-6-(1-Ethyl-1H-pyrazol-4-yl)-2-(4-isopropylphenyl)-3-methyl-1,2,3,4-tetrahydroisoquinolin-1-yl)phenyl)acrylic acid]
- IC50 (MCF7 cells): 0.86 nM
- Emax at 3 µM (ERα): 118%

SMILES: CCn1cc(-c2ccc3c(c2)C[C@@H](C)N(c2ccc(C(C)C)cc2)[C@@H]3c2ccc(/C=C/C(=O)O)cc2)cn1 [Example 8, (E)-3-(4-((1R,3R)-6-(1-Ethyl-1H-pyrazol-4-yl)-2-(4-isopropylphenyl)-3-methyl-1,2,3,4-tetrahydroisoquinolin-1-yl)phenyl)acrylic acid]
- IC50 (MCF7 cells): 0.17 nM
- Emax at 3 µM (ERα): 129%

SMILES: C[C@@H]1Cc2cc(-c3cnn(C)c3)ccc2[C@@H](c2ccc(/C=C/C(=O)O)cc2)N1c1ccc(C2CC2)cc1 [Example 11, (E)-3-(4-((1R,3R)-2-(4-Cyclopropylphenyl)-3-methyl-6-(1-methyl-1H-pyrazol-4-yl)-1,2,3,4-tetrahydroisoquinolin-1-yl)phenyl)acrylic acid]
- IC50 (MCF7 cells): 1.47 nM
- Emax at 3 µM (ERα): 134%

SMILES: CCn1cc(-c2ccc3c(c2)C[C@@H](C)N(c2ccc(C4CC4)cc2)[C@@H]3c2ccc(/C=C/C(=O)O)cc2)cn1 [Example 14, (E)-3-(4-((1R,3R)-2-(4-Cyclopropylphenyl)-6-(1-ethyl-1H-pyrazol-4-yl)-3-methyl-1,2,3,4-tetrahydroisoquinolin-1-yl)phenyl)acrylic acid]
- IC50 (MCF7 cells): 0.53 nM
- Emax at 3 µM (ERα): 147%

SMILES: CC(C)c1ccc(N2[C@H](c3ccc(/C=C/C(=O)O)cc3)c3ccc(-c4cnn(C)c4)cc3C[C@H]2C)cc1 [Example 42, (E)-3-(4-((1R,3R)-2-(4-Isopropylphenyl)-3-methyl-6-(1-methyl-1H-pyrazol-4-yl)-1,2,3,4-tetrahydroisoquinolin-1-yl)phenyl)acrylic acid]
- IC50 (MCF7 cells): 0.34 nM
- Emax at 3 µM (ERα): 112%
